What follows are molecules tested against T1, M4 receptor (Homo sapiens, UniProt P08173) (assay: Calcium flux (FLIPR) potentiation assay in cells stably expressing M4 receptor). Settings: not given.
T1 construct: expressed in transfected cells
T1 sequence (P08173 1-479): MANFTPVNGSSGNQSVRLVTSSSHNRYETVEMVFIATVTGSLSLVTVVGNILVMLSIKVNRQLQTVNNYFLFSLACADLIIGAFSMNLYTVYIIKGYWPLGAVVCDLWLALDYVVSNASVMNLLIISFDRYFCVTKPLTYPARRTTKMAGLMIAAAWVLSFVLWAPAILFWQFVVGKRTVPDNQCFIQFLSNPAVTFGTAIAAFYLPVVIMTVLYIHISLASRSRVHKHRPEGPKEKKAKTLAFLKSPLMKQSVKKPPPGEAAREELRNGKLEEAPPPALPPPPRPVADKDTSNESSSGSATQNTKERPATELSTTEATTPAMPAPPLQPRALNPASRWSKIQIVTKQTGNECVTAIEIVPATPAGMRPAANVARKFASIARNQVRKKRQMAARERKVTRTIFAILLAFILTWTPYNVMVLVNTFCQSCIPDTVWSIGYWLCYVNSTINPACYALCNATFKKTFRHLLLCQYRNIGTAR
Assay type: cell-based
From the text: Test example 1. Determination of the effect of the compounds of the present invention on calcium current in cells stably expressing M1-M5 receptors
To detect the potentiating effect of compounds on calcium flux activity in CHO-K1/human M1/3/5 and CHO-K1/Gα15 M2/4 cells.
384-well assay plate, 384-well plate, FLIPR Tip, FLIPR Penta plate reader, Dispendix non-contact nanoliter dispensing system (liquid handling workstation), liquid handler.
Ham's F-12 Nutrient Mix, foetal bovine serum, P/S (Gibco: 15140122), HBSS (Gibco: 14025076), HEPES (Gibco: 15630080), FLIPR calcium 6 assay kit (Molecular Devices: R8190), Probenecid (PBA) (Invitrogen: P36400), Acetylcholine chloride (Sigma: A6625-25G) Complete culture medium: DMEM + 10% FBS + 1X P/S; Cell seeding medium: DMEM + 10% FBS + 1X PS; Assay buffer 1: 1X HBSS + 20 mM HEPES +2.5 mM Probenecid; Assay buffer 2: 1X HBSS + 20 mM HEPES; Cell line: CHO-K1/M1; CHO-K1/M2/Gα15; CHO-K1/M3; CHO-K1/M4/Gα15; CHO-K1/M5.
FLIPR calcium 6 assay kit: Component A was dissolved in Assay buffer 1, and the mixture was shaken for 1-2 min, sub-packaged and stored at -20°C.
• 1) CHO-K1/M1; CHO-K1/M2/Gα15; CHO-K1/M3; CHO-K1/M4/Gα15; and CHO-K1/M5 cell lines were cultured separately in complete culture medium at 37°C, 5% CO2 to 70%-90% confluency. • 2) The cells were digested and resuspended in cell seeding medium, 5,000 cells/well/20 µL were seeded into a 384-well cell culture plate, and the cells were cultured at 37°C, 5% CO2 for 24 hours. • 3) The cell culture plate was taken out of the CO2 incubator and equilibrated at room temperature for 10 minutes. • 4) Component A solution was removed and allowed to equilibrate to room temperature. 20 µL of Component A solution was added to each well of the cell culture plate, and incubated at room temperature in the dark for 1 hour. • 5) Acetylcholine chloride (ACh), a muscarinic receptor agonist, was prepared in Assay buffer 2 at EC20/EC100 concentrations; subsequently, 30 µL of the prepared muscarinic receptor agonist was added to a 384-well agonist plate (PE: 6008590) using a Multidrop Combi; the working solutions of the positive control compound and the test compound were serially diluted at a 3.16-fold gradient and dispensed (450 nL) into a 384-well compound plate (PE: 6008590) using the Dispendix liquid handling workstation; 30 µL of Assay buffer 2 was added to the 384-well compound plate (PE: 6008590) using the Multidrop Combi; the positive control compound and the test compound were diluted to 6X, mixed by shaking, and placed at room temperature until use. • 6) 10 µL of the diluted 6X compound was added to the assay wells of the corresponding 384-well cell plate using the FLIPR Penta, followed by a 2-minute incubation. • 7) 10 µL of the prepared muscarinic receptor agonist was added to the assay wells of the corresponding 384-well cell plate using the FLIPR Penta, with simultaneous data acquisition.
FLIPR Penta was used to read and collect the fluorescence signal value (RFU). The maximum RFU value was used to calculate the percent activation data based on the readings of the Low control (DMSO control group) and High control (ACh EC100) experimental groups {% activation rate = (RFUsample - RFUlow control) / (RFUhigh control - RFUlow control)×100}. The test compound was diluted 3.16X in the reaction system to generate 11 concentration points ranging from 30 µM to […].

**Q.** With Cc1c2c(c3ncnn3c1C)CN(C(=O)CC1CN(c3ncc(F)cc3F)C1)C2 [Example 301] as the molecule, how does the EC50 read?
**A.** The EC50 was 12.4 nM.

**Q.** For Cc1c2c(c3ncnn3c1C)CN(C(=O)CC1CN(c3ccc4c(ccn4C)c3)C1)C2 [Example 309], which EC50 is on record?
**A.** Its EC50 is 28.1 nM.

Same assay, conditions: CHO-K1/M4/Gα15 cells; potentiation of acetylcholine (EC20) calcium flux; read-out: M4 FLIPR EC50

**Q.** With Cc1c2c(c3ccnn3c1C)CN(C(=O)CC1CN(c3ccnc(OCC(F)F)c3)C1)C2 [Example 203] as the molecule, how does the EC50 read?
**A.** The EC50 was 90 nM.

**Q.** For Cc1c2c(c3ncnn3c1C)CN(C(=O)CC1CN(c3cc(C(F)(F)F)ncc3Cl)C1)C2 [Example 204], which EC50 is on record?
**A.** Its EC50 is 33 nM.

**Q.** Which EC50 does the source give for Cc1c2c(c3ccnn3c1C)CN(C(=O)CC1CN(c3ccnc(C(F)F)c3)C1)C2 [Example 208] here?
**A.** Its EC50 is 42.6 nM.

**Q.** Which EC50 does the source give for Cc1c2c(c3ncnn3c1C)CN(C(=O)CC1CN(c3ccc4nc(C(F)(F)F)cn4n3)C1)C2 [Example 213] here?
**A.** Its EC50 is 12.4 nM.

**Q.** For Cc1c2c(c3ncnn3c1C)CN(C(=O)CC1CN(c3ccc(C(F)(F)F)cn3)C1)C2 [Example 217], which EC50 is on record?
**A.** The EC50 was 99.7 nM.

**Q.** Which EC50 does the source give for COc1cc(N2CC(CC(=O)N3Cc4c(C)c(C)n5nccc5c4C3)C2)c(F)cn1 [Example 220] here?
**A.** Its EC50 is 53.5 nM.

**Q.** Cc1c2c(c3ccnn3c1C)CN(C(=O)CC1CN(c3ccnc(OC4CC4)c3)C1)C2 [Example 221] was tested. Which EC50 did it give?
**A.** The EC50 was 94.3 nM.

**Q.** How did the EC50 turn out when Cc1nc(Cl)c(C)c(N2CC(CC(=O)N3Cc4c(C)c(C)n5ncnc5c4C3)C2)n1 [Example 226] was run?
**A.** Its EC50 is 29.9 nM.

**Q.** How did the EC50 turn out when Cc1c2c(c3ccnn3c1C)CN(C(=O)CC1CN(c3ccc4nc(C(F)(F)F)cn4n3)C1)C2 [Example 227] was run?
**A.** The EC50 was 90.4 nM.

**Q.** How did the EC50 turn out when Cc1nc2c3c(c(C)c(C)n2n1)CN(C(=O)CC1CN(c2ccnc(OC4CC4)c2)C1)C3 [Example 230] was run?
**A.** The EC50 was 16.3 nM.

**Q.** How did the EC50 turn out when Cc1nc2c3c(c(C)c(C)n2n1)CN(C(=O)[C@@H]1CCN(c2ccncn2)C1)C3 [Example 232] was run?
**A.** The EC50 was 36.4 nM.

**Q.** CCOc1cc(N2CC(CC(=O)N3Cc4c(C)c(C)n5ncnc5c4C3)C2)ccn1 [Example 235] was tested. Which EC50 did it give?
**A.** Its EC50 is 35.3 nM.

**Q.** For CCOc1cc(N2CC(OC(=O)N3Cc4c(C)c(C)n5ncnc5c4C3)C2)ccn1 [Example 238], which EC50 is on record?
**A.** Its EC50 is 35.1 nM.

**Q.** Which EC50 does the source give for COc1nccc(N2CC(OC(=O)N3Cc4c(C)c(C)n5ncnc5c4C3)C2)n1 [Example 239] here?
**A.** Its EC50 is 42.6 nM.

**Q.** For [2H]C([2H])([2H])Oc1cc(N2CC(OC(=O)N3Cc4c(C)c(C)n5ncnc5c4C3)C2)ccn1 [Example 247], which EC50 is on record?
**A.** The EC50 was 96.3 nM.

**Q.** COc1ccc(N2CC(CC(=O)N3Cc4c(C)c(C)n5ncnc5c4C3)C2)cn1 [Example 264] was tested. Which EC50 did it give?
**A.** The EC50 was 47.8 nM.

**Q.** How did the EC50 turn out when Cc1c2c(c3ncnn3c1C)CN(C(=O)C1CC(Nc3ccnc(C(F)(F)F)c3)C1)C2 (centres unmarked) [Example 284-P2, (5,6-Dimethyl-7,9-dihydro-8H-pyrrolo[3,4-c][1,2,4]triazolo[1,5-a]pyridin-8-yl)(3-((2-(trifluoromethyl)pyridin-4-yl)amino)cyclobutyl)methanone] was run?
**A.** The EC50 was 59.7 nM.

**Q.** How did the EC50 turn out when COc1c(C)c2c(n3ncnc13)CN(C(=O)CC1CN(c3ccnc(C(F)(F)F)c3)C1)C2 [Example 292, 1-(4-Methoxy-5-methyl-7,8-dihydro-6H-[1,2,4]triazolo[5,1-f]pyrrolo[4,3-b]pyridin-7-yl)-2-{1-[2-(trifluoromethyl)pyridin-4-yl]azetidin-3-yl}ethan-1-one] was run?
**A.** The EC50 was 53.5 nM.

**Q.** With Cc1c2c(n3ncnc3c1Cl)CN(C(=O)CC1CN(c3ccnc(C(F)(F)F)c3)C1)C2 [Example 293, 1-(4-Chloro-5-methyl-7,8-dihydro-6H-[1,2,4]triazolo[5,1-f]pyrrolo[4,3-b]pyridin-7-yl)-2-{1-[2-(trifluoromethyl)pyridin-4-yl]azetidin-3-yl}ethan-1-one] as the molecule, how does the EC50 read?
**A.** Its EC50 is 99.7 nM.

**Q.** How did the EC50 turn out when Cc1c2c(c3ncnn3c1C)CN(C(=O)C1CC(Nc3ncc(C(F)(F)F)cn3)C1)C2 (centres unmarked) [Example 299, (5,6-Dimethyl-7,9-dihydro-8H-pyrrolo[3,4-c][1,2,4]triazolo[1,5-a]pyridin-8-yl)(3-((5-(trifluoromethyl)pyrimidin-2-yl)amino)cyclobutyl)methanone] was run?
**A.** The EC50 was 26.8 nM.

**Q.** For Cc1c2c(c3ncnn3c1C)CN(C(=O)CC1CN(c3ncc(F)cn3)C1)C2 [Example 300], which EC50 is on record?
**A.** Its EC50 is 35.7 nM.

**Q.** Which EC50 does the source give for Cc1c2c(c3ncnn3c1C)CN(C(=O)CC1CN(c3cnc4c(c3)CCCO4)C1)C2 [Example 302] here?
**A.** The EC50 was 23.2 nM.

**Q.** Which EC50 does the source give for Cc1c2c(c3ncnn3c1C)CN(C(=O)CC1CN(c3ccc(OC4CC4)nc3)C1)C2 [Example 303] here?
**A.** Its EC50 is 13.8 nM.

**Q.** For Cc1c2c(c3ncnn3c1C)CN(C(=O)CC1CN(c3ccc(OC(F)F)nc3)C1)C2 [Example 305], which EC50 is on record?
**A.** The EC50 was 6.8 nM.

**Q.** For Cc1c2c(c3ncnn3c1C)CN(C(=O)CC1CN(c3ccc4c(cnn4C4CC4)c3)C1)C2 [Example 306], which EC50 is on record?
**A.** The EC50 was 11.1 nM.

**Q.** With CCn1ccc2cc(N3CC(CC(=O)N4Cc5c(C)c(C)n6ncnc6c5C4)C3)ccc21 [Example 310] as the molecule, how does the EC50 read?
**A.** Its EC50 is 91.2 nM.

**Q.** Cc1c2c(c3ncnn3c1C)CN(C(=O)CC1CN(c3ccc(C4CC4)nc3)C1)C2 [Example 312] was tested. Which EC50 did it give?
**A.** Its EC50 is 15.1 nM.

**Q.** With CCc1ccc(N2CC(CC(=O)N3Cc4c(C)c(C)n5ncnc5c4C3)C2)cn1 [Example 313] as the molecule, how does the EC50 read?
**A.** The EC50 was 10.4 nM.

**Q.** How did the EC50 turn out when Cc1ccc(N2CC(CC(=O)N3Cc4c(C)c(C)n5ncnc5c4C3)C2)cn1 [Example 318] was run?
**A.** Its EC50 is 11.2 nM.

**Q.** With Cc1c2c(c3ncnn3c1C)CN(C(=O)CC1CN(c3ncc(C4CC(F)(F)C4)cn3)C1)C2 [Example 320] as the molecule, how does the EC50 read?
**A.** Its EC50 is 34.1 nM.
